Residue numbers refer to the chain shown, from its start.
Tests used:
[1] = target: T1, hOAT (human ornithine δ-aminotransferase) (Homo sapiens, UniProt P04181); assay: thermal denaturation followed by CD at […] nm, holo versus apo; type: binding; settings: 50 mM Hepes, pH 7.4, 0.5 M NaCl; tetrameric form; covalent (internal aldimine with Lys292)
T1 construct: gene OAT; untagged, pET43a, E. coli BL21(DE3)pLysS; DEAE and Superdex 200; tetramer in equilibrium with dimer, dimer is the functional unit
T1 sequence (P04181 26-439): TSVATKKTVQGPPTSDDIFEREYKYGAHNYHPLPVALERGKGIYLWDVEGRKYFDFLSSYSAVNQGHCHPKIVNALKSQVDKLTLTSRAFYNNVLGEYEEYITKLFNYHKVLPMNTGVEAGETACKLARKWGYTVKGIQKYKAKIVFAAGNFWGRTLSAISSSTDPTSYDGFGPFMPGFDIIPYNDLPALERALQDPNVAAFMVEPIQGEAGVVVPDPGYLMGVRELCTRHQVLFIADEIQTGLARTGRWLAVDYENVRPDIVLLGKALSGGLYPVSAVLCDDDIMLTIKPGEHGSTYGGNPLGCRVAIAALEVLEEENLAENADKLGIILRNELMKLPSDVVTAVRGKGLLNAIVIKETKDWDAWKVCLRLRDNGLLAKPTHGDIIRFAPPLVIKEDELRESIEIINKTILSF

[2] = target: T2, hOAT (human ornithine δ-aminotransferase) (Homo sapiens, UniProt P04181, R217A); assay: quenching of intrinsic fluorescence of apoenzyme at […] nm; type: binding; settings: read-out: KD(PLP)
T2 construct: gene OAT; untagged, pET43a, E. coli BL21(DE3)pLysS; DEAE and Superdex 200; tetramer in equilibrium with dimer, dimer is the functional unit
T2 sequence (P04181 26-439 R217A): T1 sequence (P04181 26-439) with R192A

dTm (apparent Tm, holo minus apo) [1]: ~ 21 °C
Kd [2]: 0.28 ± 0.3 µM
Compound: Cc1ncc(COP(=O)(O)O)c(C=O)c1O [PLP]

Source: publication PMC5432616, “Oligomeric State and Thermal Stability of Apo- and Holo- Human Ornithine δ-Aminotransferase” (The Protein Journal, 2017)
